Results on three compounds are retold here after ChEMBL document CHEMBL3046822, “Synthesis, antiplatelet aggregation activity, and molecular modeling study of novel substituted-piperazine analogues” (2011).

The nature of assay [1]: Antiaggregating activity in Homo sapiens (human) platelet rich plasma assessed as ADP-induced platelet aggregation at 1 uM incubated for 4 min prior to ADP-induction measured for 5.5 min by turbidometric analysis (reference value: 54 to 88%). The format is functional.
Assay [2] in a line: Antiaggregating activity in Homo sapiens (human) platelet rich plasma assessed as ristocetin-induced platelet aggregation at 5 uM incubated for 4 min prior to ristocetin-induction measured for 5.5 min by turbidometric analysis (reference value: 65 to 99%). It is filed as functional.
The subject of assay [3] is Platelet. Put plainly: Antiaggregating activity in Homo sapiens (human) platelet rich plasma assessed as inhibition of arachidonic acid-induced platelet aggregation at 5 uM incubated for 4 min prior to arachidonic acid-induction measured for 5.5 min by turbidometric analysis. The format is functional, cell-free.
The nature of assay [4]: Antiaggregating activity in Homo sapiens (human) platelet rich plasma assessed as ADP-induced platelet aggregation at 2 uM incubated for 4 min prior to ADP-induction measured for 5.5 min by turbidometric analysis (reference value: 54 to 88%). The format is functional.
The nature of assay [5]: Antiaggregating activity in Homo sapiens (human) platelet rich plasma assessed as adrenaline-induced platelet aggregation at 2 uM incubated for 4 min prior to adrenaline-induction measured for 5.5 min by turbidometric analysis (reference value: 65 to 100%). It is filed as functional.
Assay [6] in a line: Antiaggregating activity in Homo sapiens (human) platelet rich plasma assessed as disaggregation of arachidonic acid-induced platelet aggregation at 2 uM incubated for 4 min prior to arachidonic acid-induction measured for 5.5 min by turbidometric analysis relative to control. The format is functional.
Assay [7] in a line: Antiaggregating activity in Homo sapiens (human) platelet rich plasma assessed as adrenaline-induced platelet aggregation at 1 uM incubated for 4 min prior to adrenaline-induction measured for 5.5 min by turbidometric analysis (reference value: 65 to 100%). It is filed as functional.
The nature of assay [8]: Antiaggregating activity in Homo sapiens (human) platelet rich plasma assessed as disaggregation of ADP-induced platelet aggregation at 5 uM incubated for 4 min prior to ADP-induction measured for 5.5 min by turbidometric analysis relative to control. The format is functional.
Assay [9] can be described thus: Antiaggregating activity in Homo sapiens (human) platelet rich plasma assessed as ristocetin-induced platelet aggregation at 1 uM incubated for 4 min prior to ristocetin-induction measured for 5.5 min by turbidometric analysis (reference value: 65 to 99%). The format is functional.
A short description of assay [10]: Antiaggregating activity in Homo sapiens (human) platelet rich plasma assessed as collagen-induced platelet aggregation at 2 uM incubated for 4 min prior to collagen-induction measured for 5.5 min by turbidometric analysis (reference value: 50 to 98%). It is filed as functional.
Assay [11] in a line: Antiaggregating activity in Homo sapiens (human) platelet rich plasma assessed as arachidonic acid-induced platelet aggregation at 1 uM incubated for 4 min prior to arachidonic acid-induction measured for 5.5 min by turbidometric analysis (reference value: 55 to 100%). It is filed as functional.
For assay [12], the system named is Platelet. Description: Antiaggregating activity in Homo sapiens (human) platelet rich plasma assessed as inhibition of collagen-induced platelet aggregation at 5 uM incubated for 4 min prior to collagen-induction measured for 5.5 min by turbidometric analysis. The format is functional, cell-free.
A short description of assay [13]: Antiaggregating activity in Homo sapiens (human) platelet rich plasma assessed as ristocetin-induced platelet aggregation at 2 uM incubated for 4 min prior to ristocetin-induction measured for 5.5 min by turbidometric analysis (reference value: 65 to 99%). It is filed as functional.
For assay [14], the system named is Platelet. Description: Antiaggregating activity in Homo sapiens (human) platelet rich plasma assessed as inhibition of adrenaline-induced platelet aggregation at 5 uM incubated for 4 min prior to adrenaline-induction measured for 5.5 min by turbidometric analysis. It is filed as functional, cell-free.
A short description of assay [15]: Antiaggregating activity in Homo sapiens (human) platelet rich plasma assessed as collagen-induced platelet aggregation at 1 uM incubated for 4 min prior to collagen-induction measured for 5.5 min by turbidometric analysis (reference value: 50 to 98%). The format is functional.
Assay [16] in a line: Antiaggregating activity in Homo sapiens (human) platelet rich plasma assessed as inhibition of collagen-induced platelet aggregation at 0.25 uM incubated for 4 min prior to collagen-induction measured for 5.5 min by turbidometric analysis. It is filed as functional. Also noted: scale not given: the % may be the effect or the level left.
Assay [17] deals with Platelet. Put plainly: Antiaggregating activity in Homo sapiens (human) platelet rich plasma assessed as inhibition of arachidonic acid-induced platelet aggregation at 1 uM incubated for 4 min prior to arachidonic acid-induction measured for 5.5 min by turbidometric analysis. It is filed as functional, cell-free.
The test system of assay [18] is Platelet. Description: Antiaggregating activity in Homo sapiens (human) platelet rich plasma assessed as inhibition of adrenaline-induced platelet aggregation at 1 uM incubated for 4 min prior to adrenaline-induction measured for 5.5 min by turbidometric analysis. The format is functional, cell-free.
Assay [19] concerns Platelet. Put plainly: Antiaggregating activity in Homo sapiens (human) platelet rich plasma assessed as inhibition of adrenaline-induced platelet aggregation at 2 uM incubated for 4 min prior to adrenaline-induction measured for 5.5 min by turbidometric analysis. The format is functional, cell-free.
The nature of assay [20]: Antiaggregating activity in Homo sapiens (human) platelet rich plasma assessed as ristocetin-induced platelet aggregation at 0.25 uM incubated for 4 min prior to ristocetin-induction measured for 5.5 min by turbidometric analysis (reference value: 65 to 99%). It is filed as functional.
Assay [21] has as its system Platelet. Description: Antiaggregating activity in Homo sapiens (human) platelet rich plasma assessed as inhibition of ristocetin-induced platelet aggregation at 2 uM incubated for 4 min prior to ristocetin-induction measured for 5.5 min by turbidometric analysis. The format is functional, cell-free.
The nature of assay [22]: Antiaggregating activity in Homo sapiens (human) platelet rich plasma assessed as ADP-induced platelet aggregation at 0.25 uM incubated for 4 min prior to ADP-induction measured for 5.5 min by turbidometric analysis (reference value: 54 to 88%). The format is functional.
Assay [23] in a line: Antiaggregating activity in Homo sapiens (human) platelet rich plasma assessed as inhibition of arachidonic acid-induced platelet aggregation at 0.5 uM incubated for 4 min prior to arachidonic acid-induction measured for 5.5 min by turbidometric analysis. More on the design: scale not given: the % may be the effect or the level left. The format is functional.
In assay [24] the test system is Platelet. Description: Antiaggregating activity in Homo sapiens (human) platelet rich plasma assessed as inhibition of ADP-induced platelet aggregation at 2 uM incubated for 4 min prior to ADP-induction measured for 5.5 min by turbidometric analysis. The format is functional, cell-free.
The test system of assay [25] is Platelet. Put plainly: Antiaggregating activity in Homo sapiens (human) platelet rich plasma assessed as inhibition of collagen-induced platelet aggregation at 1 uM incubated for 4 min prior to collagen-induction measured for 5.5 min by turbidometric analysis. The format is functional, cell-free.
The nature of assay [26]: Antiaggregating activity in Homo sapiens (human) platelet rich plasma assessed as disaggregation of ADP-induced platelet aggregation at 1 uM incubated for 4 min prior to ADP-induction measured for 5.5 min by turbidometric analysis relative to control. The format is functional.
Assay [27] concerns Platelet. Put plainly: Antiaggregating activity in Homo sapiens (human) platelet rich plasma assessed as inhibition of collagen-induced platelet aggregation at 2 uM incubated for 4 min prior to collagen-induction measured for 5.5 min by turbidometric analysis. It is filed as functional, cell-free.
For assay [28], the system named is Platelet. Description: Antiaggregating activity in Homo sapiens (human) platelet rich plasma assessed as inhibition of arachidonic acid-induced platelet aggregation at 2 uM incubated for 4 min prior to arachidonic acid-induction measured for 5.5 min by turbidometric analysis. The format is functional, cell-free.
Assay [29] in a line: Antiaggregating activity in Homo sapiens (human) platelet rich plasma assessed as adrenaline-induced platelet aggregation at 0.25 uM incubated for 4 min prior to adrenaline-induction measured for 5.5 min by turbidometric analysis (reference value: 65 to 100%). It is filed as functional.
Assay [30] concerns Platelet. Put plainly: Antiaggregating activity in Homo sapiens (human) platelet rich plasma assessed as inhibition of adrenaline-induced platelet aggregation at 50 uM incubated for 4 min prior to adrenaline-induction measured for 5.5 min by turbidometric analysis. It is filed as functional, cell-free.
A short description of assay [31]: Antiaggregating activity in Homo sapiens (human) platelet rich plasma assessed as ristocetin-induced platelet aggregation at 10 uM incubated for 4 min prior to ristocetin-induction measured for 5.5 min by turbidometric analysis (reference value: 65 to 99%). The format is functional.
Assay [32] can be described thus: Antiaggregating activity in Homo sapiens (human) platelet rich plasma assessed as collagen-induced platelet aggregation at 10 uM incubated for 4 min prior to collagen-induction measured for 5.5 min by turbidometric analysis (reference value: 50 to 98%). The format is functional.
The nature of assay [33]: Antiaggregating activity in Homo sapiens (human) platelet rich plasma assessed as ADP-induced platelet aggregation at 10 uM incubated for 4 min prior to ADP-induction measured for 5.5 min by turbidometric analysis (reference value: 54 to 88%). The format is functional.
In assay [34] the test system is Platelet. Put plainly: Antiaggregating activity in Homo sapiens (human) platelet rich plasma assessed as inhibition of arachidonic acid-induced platelet aggregation at 50 uM incubated for 4 min prior to arachidonic acid-induction measured for 5.5 min by turbidometric analysis. It is filed as functional, cell-free.
Assay [35] can be described thus: Antiaggregating activity in Homo sapiens (human) platelet rich plasma assessed as arachidonic acid-induced platelet aggregation at 10 uM incubated for 4 min prior to arachidonic acid-induction measured for 5.5 min by turbidometric analysis (reference value: 55 to 100%). The format is functional.
A short description of assay [36]: Antiaggregating activity in Homo sapiens (human) platelet rich plasma assessed as ristocetin-induced platelet aggregation at 50 uM incubated for 4 min prior to ristocetin-induction measured for 5.5 min by turbidometric analysis (reference value: 65 to 99%). The format is functional.
The subject of assay [37] is Platelet. Description: Antiaggregating activity in Homo sapiens (human) platelet rich plasma assessed as inhibition of ADP-induced platelet aggregation at 50 uM incubated for 4 min prior to ADP-induction measured for 5.5 min by turbidometric analysis. It is filed as functional, cell-free.
Assay [38] in a line: Antiaggregating activity in Homo sapiens (human) platelet rich plasma assessed as adrenaline-induced platelet aggregation at 10 uM incubated for 4 min prior to adrenaline-induction measured for 5.5 min by turbidometric analysis (reference value: 65 to 100%). It is filed as functional.
Assay [39] has as its system Platelet. Description: Antiaggregating activity in Homo sapiens (human) platelet rich plasma assessed as inhibition of collagen-induced platelet aggregation at 50 uM incubated for 4 min prior to collagen-induction measured for 5.5 min by turbidometric analysis. It is filed as functional, cell-free.

The structures appear in SMILES notation. Active and inactive are the calls of the source. No cut-off for these calls is given here.

For `O=C(c1ccc[n+](Cc2ccc(C[n+]3cccc(C(=O)N4CCN(c5ccccc5Cl)CC4)c3)cc2)c1)N1CCN(c2ccccc2Cl)CC1.[Br-].[Br-]`, the Activity in assay [1] came out at 91%; in assay [2], 51%; in assay [4], 79%; in assay [5] it was 21%; in assay [6] it was 16%; in [7], 22%. The Activity in assay [8] was determined as 13%; in [9], 78%; in assay [10] it was 26%; in [11], 40%; in assay [13], 65%; in assay [15], 84%. Further, the inhibition result with Platelet [3], with Platelet [12] and in the assay on Platelet [14] was “Active” throughout.
With `O=C(c1ccc[n+](Cc2ccccc2)c1)N1CCN(C(=O)c2ccc[n+](Cc3ccccc3)c2)CC1.[Cl-].[Cl-]`, the Activity is given as 79% in assay [16]; 80% in assay [20]; 28% in [22]; 71% in assay [23]; 73% in assay [9]; 25% in assay [26]. For the same compound, in assay [29], the Activity stood at 66%. For the same compound, the inhibition entry in the assay with Platelet [17], in the assay with Platelet [18], in the assay on Platelet [19], in the assay on Platelet [21], with Platelet [24] and with Platelet [25] was “Active” in each case. Moreover, the inhibition result in the assay on Platelet [27] and in the assay with Platelet [28] was “Active” in each case.
With `O=C(c1ccc[n+](Cc2ccc(C[n+]3cccc(C(=O)N4CCN(c5ncccn5)CC4)c3)cc2)c1)N1CCN(c2ncccn2)CC1.[Br-].[Br-]`, the Activity in assay [1] is 70%; in assay [31] it was 82%; in assay [32], 82%; in assay [7] it was 73%; in assay [33], 71%; in [9], 78%. The Activity in assay [35] was 71%; in [11], 70%; in [36] it was 73%; in [38] it was 28%; in assay [15], 73%. Also, the inhibition result in the assay with Platelet [30], in the assay on Platelet [34], in the assay with Platelet [37] and in the assay on Platelet [39] was “Active” each time.
